Activity calls are given as the source filed them. The rule behind the calls is not given here.
Columns and labels:
[1] = molecular target: Histamine H1 receptor (Homo sapiens) (UniProt P35367); assay: Inhibition of histamine H1 receptor at 0.5 uM
[2] = Ratio of drug level in brain to plasma in Wistar rat at 1 mg/kg, iv after 6 hrs; format: ADME, organism-based; design: dose 1 mg/kg, route intravenous
[3] = molecular target: 5-hydroxytryptamine receptor 7 (Rattus norvegicus) (UniProt P32305); assay: Binding affinity to rat 5HT7 receptor expressed in CHO cells co-expressing pCRE-Luc gene assessed as modulation of serotonin-induced intracellular cAMP level at 0.5 uM after 5 hrs by luciferase based luminescence assay; format: cell-based
[4] = molecular target: T1, 5-hydroxytryptamine receptor 2C (Homo sapiens) (UniProt P28335); assay: Inhibition of 5HT2C receptor at 0.5 uM
T1 sequence (whole entry): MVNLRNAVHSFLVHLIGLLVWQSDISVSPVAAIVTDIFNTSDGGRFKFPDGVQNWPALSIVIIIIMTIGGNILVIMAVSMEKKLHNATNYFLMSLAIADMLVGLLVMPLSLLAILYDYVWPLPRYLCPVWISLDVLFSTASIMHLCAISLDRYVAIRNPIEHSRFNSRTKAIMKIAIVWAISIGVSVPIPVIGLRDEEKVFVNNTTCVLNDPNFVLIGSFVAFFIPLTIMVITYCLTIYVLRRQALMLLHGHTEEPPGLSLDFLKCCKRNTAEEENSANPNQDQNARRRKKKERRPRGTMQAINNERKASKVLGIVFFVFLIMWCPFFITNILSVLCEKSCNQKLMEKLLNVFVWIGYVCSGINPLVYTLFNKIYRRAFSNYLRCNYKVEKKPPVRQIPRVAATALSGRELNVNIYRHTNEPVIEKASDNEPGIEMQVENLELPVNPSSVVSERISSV

[5] = Apparent volume of distribution in Wistar rat at 10 mg/kg, iv; format: ADME, organism-based; design: dose 10 mg/kg, route intravenous; details: in vivo, read-out: Vz
[6] = AUCt in Wistar rat at 10 mg/kg, po; format: ADME, organism-based; design: dose 10 mg/kg, route oral; details: plasma
Cytochrome P450 2D6 = Cytochrome P450 2D6 (Homo sapiens, UniProt P10635); assay: Inhibition of CYP2D6; format: ADME
Rattus norvegicus [7] = assay: Cognitive enhancing effect in rat at 10 mg/kg, po after 60 mins by novel object recognition test; format: functional, organism-based; design: dose 10 mg/kg
[8] = Clearance in Wistar rat at 10 mg/kg, iv; format: ADME, organism-based; design: dose 10 mg/kg, route intravenous; details: in vivo
[9] = Clearance in Wistar rat at 10 mg/kg, po; format: ADME, organism-based; design: dose 10 mg/kg, route oral; details: in vivo
[10] = Metabolic stability in rat liver microsomes assessed as drug metabolized level after 30 mins; format: ADME, Microsome; details: read-out: Activity
[11] = molecular target: 5-hydroxytryptamine receptor 6 (Homo sapiens) (UniProt P50406); assay: Binding affinity to human recombinant 5HT6 receptor expressed in CHO cells co-expressing pCRE-Luc gene assessed as modulation of serotonin-induced intracellular cAMP level after 4 hrs by luciferase based luminescence assay; format: cell-based
[12] = Cmax in Wistar rat at 10 mg/kg, po; format: ADME, organism-based; design: dose 10 mg/kg, route oral; details: in vivo
[13] = Cmax in Wistar rat at 10 mg/kg, iv; format: ADME, organism-based; design: dose 10 mg/kg, route intravenous; details: in vivo
Cytochrome P450 3A4 = Cytochrome P450 3A4 (Homo sapiens, UniProt P08684); assay: Inhibition of CYP3A4; format: ADME
[14] = Half life in Wistar rat at 10 mg/kg, po; format: ADME, organism-based; design: dose 10 mg/kg, route oral; details: in vivo
[15] = molecular target: T2, Muscarinic acetylcholine receptor M1 (Homo sapiens) (UniProt P11229); assay: Binding affinity to human muscarinic M1 receptor expressed in CHO cells co-expressing pCRE-Luc gene assessed as modulation of acetylcholine-induced intracellular cAMP level at 0.5 uM after 5 hrs by luciferase based luminescence assay; format: cell-based
T2 sequence (whole entry): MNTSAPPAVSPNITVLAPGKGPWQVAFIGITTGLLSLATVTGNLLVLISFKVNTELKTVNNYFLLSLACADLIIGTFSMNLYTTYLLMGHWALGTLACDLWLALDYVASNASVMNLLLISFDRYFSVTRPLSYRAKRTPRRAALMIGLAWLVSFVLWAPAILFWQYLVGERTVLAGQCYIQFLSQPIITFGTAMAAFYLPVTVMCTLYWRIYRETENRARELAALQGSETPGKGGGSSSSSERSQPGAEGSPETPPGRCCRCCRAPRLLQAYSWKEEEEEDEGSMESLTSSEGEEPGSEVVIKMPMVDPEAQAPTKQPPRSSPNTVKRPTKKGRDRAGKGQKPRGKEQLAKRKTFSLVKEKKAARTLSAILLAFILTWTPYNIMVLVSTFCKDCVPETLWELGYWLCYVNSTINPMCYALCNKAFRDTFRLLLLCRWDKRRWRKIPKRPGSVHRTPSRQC

Rattus norvegicus [16] = assay: Cognitive enhancing effect against scopolamine-induced memory deficit in rat at 10 mg/kg, po by morris water maze test; format: functional, organism-based; design: dose 10 mg/kg
[17] = Oral bioavailability in Wistar rat at 10 mg/kg; format: ADME, organism-based; details: in vivo
Rattus norvegicus [18] = assay: Apparent volume of distribution in Wistar rat at 10 mg/kg, po; format: ADME, organism-based; design: dose 10 mg/kg, route oral; details: in vivo
[19] = molecular target: 5-hydroxytryptamine receptor 4 (Homo sapiens) (UniProt Q13639); assay: Binding affinity to human recombinant 5HT4 receptor expressed in CHO cells co-expressing pCRE-Luc gene assessed as modulation of serotonin-induced intracellular cAMP level at 0.5 uM after 5 hrs by luciferase based luminescence assay; format: cell-based
[20] = molecular target: 5-hydroxytryptamine receptor 2A (Homo sapiens) (UniProt P28223); assay: Inhibition of 5HT2A receptor at 0.5 uM
[21] = AUCt in Wistar rat at 10 mg/kg, iv; format: ADME, organism-based; design: dose 10 mg/kg, route intravenous; details: plasma
[22] = Half life in Wistar rat at 10 mg/kg, iv; format: ADME, organism-based; design: dose 10 mg/kg, route intravenous; details: in vivo
[23] = molecular target: Sodium-dependent serotonin transporter (Homo sapiens) (UniProt P31645); assay: Inhibition of SERT at 0.5 uM
[24] = molecular target: T3, Alpha-1B adrenergic receptor (Homo sapiens) (UniProt P35368); assay: Inhibition of adrenergic alpha1b receptor at 0.5 uM
T3 sequence (whole entry): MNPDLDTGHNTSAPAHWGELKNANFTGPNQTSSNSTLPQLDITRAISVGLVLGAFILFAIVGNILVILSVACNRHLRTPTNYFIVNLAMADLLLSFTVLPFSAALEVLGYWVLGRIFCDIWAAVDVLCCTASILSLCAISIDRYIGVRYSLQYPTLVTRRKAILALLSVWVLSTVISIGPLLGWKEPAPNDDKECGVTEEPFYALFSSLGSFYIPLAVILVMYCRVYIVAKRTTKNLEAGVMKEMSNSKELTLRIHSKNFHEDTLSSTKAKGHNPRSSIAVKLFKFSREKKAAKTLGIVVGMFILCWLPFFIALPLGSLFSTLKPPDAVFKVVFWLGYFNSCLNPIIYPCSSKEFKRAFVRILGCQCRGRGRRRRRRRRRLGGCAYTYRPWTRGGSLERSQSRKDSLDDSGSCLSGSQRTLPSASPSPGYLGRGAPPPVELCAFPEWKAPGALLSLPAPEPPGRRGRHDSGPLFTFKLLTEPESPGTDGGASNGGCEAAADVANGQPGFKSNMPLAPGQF

[25] = molecular target: Sodium-dependent noradrenaline transporter (Homo sapiens) (UniProt P23975); assay: Inhibition of NET at 0.5 uM
[26] = Metabolic stability in human liver microsomes assessed as drug metabolized level after 30 mins; format: ADME, Microsome; details: read-out: Activity
[27] = molecular target: D(2) dopamine receptor (Homo sapiens) (UniProt P14416); assay: Inhibition of dopamine D2 receptor at 0.5 uM
[28] = molecular target: Sodium-dependent dopamine transporter (Homo sapiens) (UniProt Q01959); assay: Inhibition of DAT at 0.5 uM

Sequence of Cytochrome P450 3A4 (P08684 whole entry): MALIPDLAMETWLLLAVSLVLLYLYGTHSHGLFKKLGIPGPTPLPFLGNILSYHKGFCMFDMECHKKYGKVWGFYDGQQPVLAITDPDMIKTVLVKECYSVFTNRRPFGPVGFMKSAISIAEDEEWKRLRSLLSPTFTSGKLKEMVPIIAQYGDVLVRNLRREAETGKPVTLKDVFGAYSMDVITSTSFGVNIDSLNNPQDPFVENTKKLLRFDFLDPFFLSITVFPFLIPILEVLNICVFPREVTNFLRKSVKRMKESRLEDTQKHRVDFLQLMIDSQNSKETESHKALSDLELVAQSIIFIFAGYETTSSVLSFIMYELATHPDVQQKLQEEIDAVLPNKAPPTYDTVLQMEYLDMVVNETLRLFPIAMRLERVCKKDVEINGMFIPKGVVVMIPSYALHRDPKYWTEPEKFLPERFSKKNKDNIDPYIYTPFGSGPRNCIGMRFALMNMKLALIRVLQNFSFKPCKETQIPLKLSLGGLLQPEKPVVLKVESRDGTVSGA
Sequence of Histamine H1 receptor (Homo sapiens) (P35367 whole entry): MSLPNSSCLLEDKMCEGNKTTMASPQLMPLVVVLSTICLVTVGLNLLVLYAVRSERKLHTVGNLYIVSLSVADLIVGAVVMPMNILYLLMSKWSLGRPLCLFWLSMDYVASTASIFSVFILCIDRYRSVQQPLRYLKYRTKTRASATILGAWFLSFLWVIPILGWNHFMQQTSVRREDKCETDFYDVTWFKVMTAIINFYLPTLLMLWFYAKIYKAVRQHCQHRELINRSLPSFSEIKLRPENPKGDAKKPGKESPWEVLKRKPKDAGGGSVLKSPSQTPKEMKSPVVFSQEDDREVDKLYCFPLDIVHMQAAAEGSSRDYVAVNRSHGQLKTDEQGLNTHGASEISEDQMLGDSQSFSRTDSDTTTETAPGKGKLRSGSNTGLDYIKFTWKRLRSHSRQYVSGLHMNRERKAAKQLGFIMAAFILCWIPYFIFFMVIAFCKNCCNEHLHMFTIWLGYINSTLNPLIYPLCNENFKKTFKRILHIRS
Sequence of Sodium-dependent noradrenaline transporter (Homo sapiens) (P23975 whole entry): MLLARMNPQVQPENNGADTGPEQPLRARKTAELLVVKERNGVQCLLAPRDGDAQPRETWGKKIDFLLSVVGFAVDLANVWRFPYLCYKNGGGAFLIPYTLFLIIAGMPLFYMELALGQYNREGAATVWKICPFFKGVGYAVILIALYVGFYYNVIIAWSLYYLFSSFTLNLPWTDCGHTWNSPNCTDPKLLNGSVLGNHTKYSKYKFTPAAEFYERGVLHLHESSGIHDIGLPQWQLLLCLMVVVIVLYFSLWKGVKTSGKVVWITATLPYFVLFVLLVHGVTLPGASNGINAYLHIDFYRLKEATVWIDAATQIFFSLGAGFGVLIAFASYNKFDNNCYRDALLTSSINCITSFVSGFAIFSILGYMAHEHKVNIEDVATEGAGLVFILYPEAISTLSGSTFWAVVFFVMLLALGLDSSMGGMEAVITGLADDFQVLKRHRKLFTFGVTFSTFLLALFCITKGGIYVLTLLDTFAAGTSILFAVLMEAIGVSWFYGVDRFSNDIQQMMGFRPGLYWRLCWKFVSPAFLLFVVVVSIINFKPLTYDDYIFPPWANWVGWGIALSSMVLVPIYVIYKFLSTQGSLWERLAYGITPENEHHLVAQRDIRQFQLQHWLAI
Sequence of D(2) dopamine receptor (Homo sapiens) (P14416 whole entry): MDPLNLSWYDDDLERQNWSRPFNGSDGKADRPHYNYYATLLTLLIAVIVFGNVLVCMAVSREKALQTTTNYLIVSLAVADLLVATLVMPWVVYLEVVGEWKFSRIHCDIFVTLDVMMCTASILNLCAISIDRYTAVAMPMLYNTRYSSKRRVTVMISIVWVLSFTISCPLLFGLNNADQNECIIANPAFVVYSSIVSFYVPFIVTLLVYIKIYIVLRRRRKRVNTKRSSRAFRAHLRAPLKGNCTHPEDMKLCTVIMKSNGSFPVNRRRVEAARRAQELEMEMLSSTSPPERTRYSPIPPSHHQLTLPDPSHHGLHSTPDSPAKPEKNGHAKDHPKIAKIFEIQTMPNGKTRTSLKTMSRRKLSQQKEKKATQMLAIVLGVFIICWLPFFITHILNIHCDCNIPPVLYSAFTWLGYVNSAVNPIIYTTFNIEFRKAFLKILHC
Sequence of Sodium-dependent serotonin transporter (Homo sapiens) (P31645 whole entry, looked up): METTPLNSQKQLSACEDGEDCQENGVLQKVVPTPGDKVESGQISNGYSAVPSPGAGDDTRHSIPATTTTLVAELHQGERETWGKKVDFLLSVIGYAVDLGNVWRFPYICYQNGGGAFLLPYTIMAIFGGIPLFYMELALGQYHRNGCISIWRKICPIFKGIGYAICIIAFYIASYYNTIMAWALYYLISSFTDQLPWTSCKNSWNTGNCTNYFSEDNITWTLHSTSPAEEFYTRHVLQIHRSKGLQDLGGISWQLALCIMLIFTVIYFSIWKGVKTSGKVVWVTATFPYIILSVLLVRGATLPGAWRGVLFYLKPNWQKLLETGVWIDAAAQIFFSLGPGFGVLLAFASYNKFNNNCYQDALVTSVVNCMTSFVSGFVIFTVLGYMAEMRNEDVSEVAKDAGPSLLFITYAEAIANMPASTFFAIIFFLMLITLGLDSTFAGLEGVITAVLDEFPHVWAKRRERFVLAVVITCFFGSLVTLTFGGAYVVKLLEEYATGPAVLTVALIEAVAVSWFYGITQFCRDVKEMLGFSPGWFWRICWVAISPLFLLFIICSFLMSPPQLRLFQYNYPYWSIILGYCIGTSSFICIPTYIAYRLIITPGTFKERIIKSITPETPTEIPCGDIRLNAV
Sequence of 5-hydroxytryptamine receptor 7 (Rattus norvegicus) (P32305 whole entry): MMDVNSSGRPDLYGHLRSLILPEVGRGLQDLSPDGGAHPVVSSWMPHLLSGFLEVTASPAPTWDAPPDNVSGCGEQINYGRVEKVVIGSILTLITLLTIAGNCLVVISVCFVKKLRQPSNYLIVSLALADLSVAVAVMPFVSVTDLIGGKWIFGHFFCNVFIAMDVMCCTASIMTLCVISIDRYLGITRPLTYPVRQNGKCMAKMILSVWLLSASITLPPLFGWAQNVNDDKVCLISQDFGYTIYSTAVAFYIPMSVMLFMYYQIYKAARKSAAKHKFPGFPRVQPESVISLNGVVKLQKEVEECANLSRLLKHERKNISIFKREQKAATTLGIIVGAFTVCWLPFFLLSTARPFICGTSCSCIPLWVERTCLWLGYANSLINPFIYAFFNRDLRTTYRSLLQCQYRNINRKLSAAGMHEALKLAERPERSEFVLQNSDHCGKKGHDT
Sequence of 5-hydroxytryptamine receptor 6 (Homo sapiens) (P50406 whole entry): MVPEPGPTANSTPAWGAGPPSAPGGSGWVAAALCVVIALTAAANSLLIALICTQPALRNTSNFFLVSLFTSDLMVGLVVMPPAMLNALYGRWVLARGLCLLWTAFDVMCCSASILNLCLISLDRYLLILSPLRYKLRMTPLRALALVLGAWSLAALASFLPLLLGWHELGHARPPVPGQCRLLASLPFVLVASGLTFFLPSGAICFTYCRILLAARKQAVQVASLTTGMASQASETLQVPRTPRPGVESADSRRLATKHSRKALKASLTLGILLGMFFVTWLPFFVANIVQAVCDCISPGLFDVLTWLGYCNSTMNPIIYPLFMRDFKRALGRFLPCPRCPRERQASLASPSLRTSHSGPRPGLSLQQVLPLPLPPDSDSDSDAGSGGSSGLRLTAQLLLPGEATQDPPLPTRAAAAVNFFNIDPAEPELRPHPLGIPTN
Sequence of 5-hydroxytryptamine receptor 2A (Homo sapiens) (P28223 whole entry): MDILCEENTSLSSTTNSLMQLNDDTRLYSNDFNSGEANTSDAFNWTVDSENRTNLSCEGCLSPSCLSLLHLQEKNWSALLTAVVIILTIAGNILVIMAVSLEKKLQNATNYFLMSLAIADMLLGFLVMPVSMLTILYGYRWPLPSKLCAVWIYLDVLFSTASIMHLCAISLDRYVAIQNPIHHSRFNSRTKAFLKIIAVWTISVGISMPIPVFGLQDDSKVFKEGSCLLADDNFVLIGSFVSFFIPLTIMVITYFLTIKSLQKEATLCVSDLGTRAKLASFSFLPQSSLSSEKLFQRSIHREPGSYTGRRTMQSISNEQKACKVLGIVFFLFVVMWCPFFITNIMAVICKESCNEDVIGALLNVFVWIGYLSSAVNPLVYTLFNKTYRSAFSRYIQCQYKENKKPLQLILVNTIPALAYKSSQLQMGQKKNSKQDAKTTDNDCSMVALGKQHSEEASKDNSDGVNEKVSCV
Sequence of Cytochrome P450 2D6 (P10635 whole entry): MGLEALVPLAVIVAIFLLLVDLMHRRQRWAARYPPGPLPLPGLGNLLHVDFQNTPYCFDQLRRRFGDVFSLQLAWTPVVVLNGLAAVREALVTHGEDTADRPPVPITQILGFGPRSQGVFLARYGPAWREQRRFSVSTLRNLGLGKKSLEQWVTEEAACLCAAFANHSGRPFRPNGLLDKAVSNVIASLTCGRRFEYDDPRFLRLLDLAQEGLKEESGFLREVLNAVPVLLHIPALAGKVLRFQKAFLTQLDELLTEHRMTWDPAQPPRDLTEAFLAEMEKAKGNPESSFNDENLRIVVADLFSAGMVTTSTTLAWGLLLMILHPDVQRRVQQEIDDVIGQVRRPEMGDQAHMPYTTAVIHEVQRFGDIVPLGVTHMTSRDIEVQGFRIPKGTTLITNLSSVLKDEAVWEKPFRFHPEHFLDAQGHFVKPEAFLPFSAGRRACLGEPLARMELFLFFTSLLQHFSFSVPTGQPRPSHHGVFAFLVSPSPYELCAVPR
Sequence of 5-hydroxytryptamine receptor 4 (Homo sapiens) (Q13639 whole entry): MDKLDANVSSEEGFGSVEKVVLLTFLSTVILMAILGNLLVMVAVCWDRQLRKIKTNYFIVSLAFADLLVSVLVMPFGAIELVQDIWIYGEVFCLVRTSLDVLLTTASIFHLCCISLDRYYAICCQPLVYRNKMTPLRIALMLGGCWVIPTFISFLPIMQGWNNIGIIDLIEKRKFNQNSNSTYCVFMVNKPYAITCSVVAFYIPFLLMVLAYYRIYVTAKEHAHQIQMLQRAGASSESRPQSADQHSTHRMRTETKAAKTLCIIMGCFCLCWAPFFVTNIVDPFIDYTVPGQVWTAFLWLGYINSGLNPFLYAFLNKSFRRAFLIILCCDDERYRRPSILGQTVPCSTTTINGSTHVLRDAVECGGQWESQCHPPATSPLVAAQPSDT

inhibition [1]: < 50%
Kp at 6 h [2]: 1.79
inhibition [3]: < 50%
inhibition [4]: < 50%
Vd [5]: 34.9 L/kg
AUC(0-t) [6]: 268 ng·h/mL
IC50 (Cytochrome P450 2D6): 21.1 µM
clearance [8]: 72.5 mL/min/kg
CL/F [9]: 585 mL/min/kg
metabolised at 0.5 h [10]: 70%
Kb [11]: 0.0001 µM
Cmax [12]: 105 ng/mL
Cmax [13]: 2690 ng/mL
IC50 (Cytochrome P450 3A4): 14.7 µM
half-life [14]: 3.75 h
inhibition [15]: < 50%
bioavailability [17]: 12%
Vz (Rattus norvegicus [18]): 196.287 L/kg
inhibition [19]: < 50%
inhibition [20]: < 50%
AUC(0-t) [21]: 2320 ng·h/mL
half-life [22]: 5.48 h
inhibition [23]: < 50%
inhibition [24]: < 50%
inhibition [25]: < 50%
metabolised at 0.5 h [26]: 43%
inhibition [27]: < 50%
inhibition [28]: < 50%
SMILES: CN1CC(Cl)=C(c2cn(S(=O)(=O)c3ccccc3)c3ccccc23)C1
Activity (Rattus norvegicus [7]): Active
Activity (Rattus norvegicus [16]): Active

Reference: ChEMBL document CHEMBL1806380, “Rigidized 1-aryl sulfonyl tryptamines: synthesis and pharmacological evaluation as 5-HT6 receptor ligands” (Bioorg Med Chem Lett, 2011)
